The assay concerns HT29 cells. Briefly: Inhibition of cell necrosis (CCK8 method), induced programmed necrosis of HT29 cells. In kind it is cell-based. The settings on record: Homo sapiens, HT-29; rescue from necrosis induced by TNF-α 20 ng/mL, AT-406 1 μM, Z-VAD-FMK 20 μM; 16-20 hours; CCK-8, OD 450 nm. A digest of the protocol: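 Rescue from programmed necrosis was scored by CCK-8 absorbance at 450 nm after 16-20 h of TNF-α (20 ng/mL), AT-406 (1 μM) and Z-VAD-FMK (20 μM) at 37 °C, 5% CO2. HT29 cells had received compound 30 min earlier across nine 4-fold dilutions (top 25000 nM final). IC50 came from % inhibition relative to uninduced and induced-only wells.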
On the technique in general: Formazan colour is commonly taken as a measure of viable cells.

This passage reports IC50 results from US12435060B2, “Acylamino bridged heterocyclic compound, and composition and application thereof” (BEIJING SCITECH-MQ PHARMACEUTICALS LIMITED, priority 2019, dated 2025).

The structures appear in SMILES notation.

What is called IC50 is the midpoint of a concentration-inhibition curve. A lower IC50 goes with inhibition by little substance.

Take `CC(C)(O)COc1ccc(Cl)c(-c2ccnc(NC(=O)c3nnc(CC4CCCCC4)[nH]3)c2)c1` [Example 366, N-(4-(2-chloro-5-(2-hydroxyl-2-methylpropoxy)phenyl)pyridin-2-yl)-5-(cyclohexylmethyl)-4H-1,2,4-triazole-3-carboxamide]: the IC50 was no more than 100 nM.

`CC(C)(O)CCCCOc1ccc(Cl)c(-c2ccnc(NC(=O)c3nnc(Cc4ccccc4)[nH]3)c2)c1` [Example 367, 5-benzyl-N-(4-(2-chloro-5-((5-hydroxyl-5-methylhexyl)oxy)phenyl)pyridin-2-yl)-4H-1,2,4-triazole-3-carboxamide]: the IC50 was no more than 100 nM.

For the compound `CC(C)(O)CCCCOc1ccc(Cl)c(-c2ccnc(NC(=O)c3nnc(Cc4ccccc4F)[nH]3)c2)c1` [Example 368, 5-(2-fluorobenzyl)-N-(4-(2-chloro-5-((5-hydroxyl-5-methylhexyl)oxy)phenyl)pyridin-2-yl)-4H-1,2,4-triazole-3-carboxamide], the IC50 was no more than 100 nM.

Compound `CC(C)(O)CCCCOc1ccc(Cl)c(-c2ccnc(NC(=O)c3nnc(CC4CCCC4)[nH]3)c2)c1` [Example 369, N-(4-(2-chloro-5-((5-hydroxyl-5-methylhexyl)oxy)phenyl)pyridin-2-yl)-5-(cyclopentylmethyl)-4H-1,2,4-triazole-3-carboxamide] gave an IC50 of no more than 100 nM.

In turn, `CC(C)(O)CCCCOc1ccc(Cl)c(-c2ccnc(NC(=O)c3nnc(CC4CCCCC4)[nH]3)c2)c1` [Example 370, N-(4-(2-chloro-5-((5-hydroxyl-5-methylhexyl)oxy)phenyl)pyridin-2-yl)-5-(cyclohexylmethyl)-4H-1,2,4-triazole-3-carboxamide] had an IC50 of no more than 100 nM.

For the compound `O=C(Nc1cc(-c2cc(OCCCCO)ccc2Cl)ccn1)c1nnc(Cc2ccccc2)[nH]1` [Example 371, 5-benzyl-N-(4-(2-chloro-5-(4-hydroxybutoxy)phenyl)pyridin-2-yl)-4H-1,2,4-triazole-3-carboxamide], the IC50 is no more than 100 nM.

Turning to `O=C(Nc1cc(-c2cc(OCCCCO)ccc2Cl)ccn1)c1nnc(Cc2ccccc2F)[nH]1` [Example 372, 5-(2-fluorobenzyl)-N-(4-(2-chloro-5-(4-hydroxybutoxy)phenyl)pyridin-2-yl)-4H-1,2,4-triazole-3-carboxamide], the IC50 is no more than 100 nM.

`O=C(Nc1cc(-c2cc(OCCCCO)ccc2Cl)ccn1)c1nnc(CC2CCCC2)[nH]1` [Example 373, N-(4-(2-chloro-5-(4-hydroxybutoxy)phenyl)pyridin-2-yl)-5-(cyclopentylmethyl)-4H-1,2,4-triazole-3-carboxamide] displayed an IC50 of no more than 100 nM.

The compound `O=C(Nc1cc(-c2cc(OCCCCO)ccc2Cl)ccn1)c1nnc(CC2CCCCC2)[nH]1` [Example 374, N-(4-(2-chloro-5-(4-hydroxybutoxy)phenyl)pyridin-2-yl)-5-(cyclohexylmethyl)-4H-1,2,4-triazole-3-carboxamide] showed an IC50 of no more than 100 nM.

Regarding `O=C(Nc1cc(-c2cc(OCCCCCO)ccc2Cl)ccn1)c1nnc(Cc2ccccc2)[nH]1` [Example 375, 5-benzyl-N-(4-(2-chloro-5-((5-hydroxypentyl)oxy)phenyl)pyridin-2-yl)-4H-1,2,4-triazole-3-carboxamide], the IC50 was no more than 100 nM.

The compound `O=C(Nc1cc(-c2cc(OCCCCCO)ccc2Cl)ccn1)c1nnc(Cc2ccccc2F)[nH]1` [Example 376, 5-(2-fluorobenzyl)-N-(4-(2-chloro-5-((5-hydroxypentyl)oxy)phenyl)pyridin-2-yl)-4H-1,2,4-triazole-3-carboxamide] came in with an IC50 of no more than 100 nM.

For `O=C(Nc1cc(-c2cc(OCCCCCO)ccc2Cl)ccn1)c1nnc(CC2CCCC2)[nH]1` [Example 377, N-(4-(2-chloro-5-((5-hydroxypentyl)oxy)phenyl)pyridin-2-yl)-5-(cyclopentylmethyl)-4H-1,2,4-triazole-3-carboxamide], the IC50 was no more than 100 nM.

Turning to `O=C(Nc1cc(-c2cc(OCCCCCO)ccc2Cl)ccn1)c1nnc(CC2CCCCC2)[nH]1` [Example 378, N-(4-(2-chloro-5-((5-hydroxypentyl)oxy)phenyl)pyridin-2-yl)-5-(cyclohexylmethyl)-4H-1,2,4-triazole-3-carboxamide], the IC50 is no more than 100 nM.

`COCCOc1ccc(Cl)c(-c2ccnc(NC(=O)c3nnc(Cc4ccccc4)[nH]3)c2)c1` [Example 379, 5-benzyl-N-(4-(2-chloro-5-(2-methoxyethoxy)phenyl)pyridin-2-yl)-4H-1,2,4-triazole-3-carboxamide] registered an IC50 of 100 to 1000 nM.

Turning to `COCCOc1ccc(Cl)c(-c2ccnc(NC(=O)c3nnc(Cc4ccccc4F)[nH]3)c2)c1` [Example 380, 5-(2-fluorobenzyl)-N-(4-(2-chloro-5-(2-methoxyethoxy)phenyl)pyridin-2-yl)-4H-1,2,4-triazole-3-carboxamide], the IC50 was no more than 100 nM.

Compound `COCCOc1ccc(Cl)c(-c2ccnc(NC(=O)c3nnc(CC4CCCC4)[nH]3)c2)c1` [Example 381, N-(4-(2-chloro-5-(2-methoxyethoxy)phenyl)pyridin-2-yl)-5-(cyclopentylmethyl)-4H-1,2,4-triazole-3-carboxamide] showed an IC50 of no more than 100 nM.

Regarding `COCCOc1ccc(Cl)c(-c2ccnc(NC(=O)c3nnc(CC4CCCCC4)[nH]3)c2)c1` [Example 382, N-(4-(2-chloro-5-(2-methoxyethoxy)phenyl)pyridin-2-yl)-5-(cyclohexylmethyl)-4H-1,2,4-triazole-3-carboxamide], the IC50 was no more than 100 nM.

In turn, `CCOCCOc1ccc(Cl)c(-c2ccnc(NC(=O)c3nnc(Cc4ccccc4)[nH]3)c2)c1` [Example 383, 5-benzyl-N-(4-(2-chloro-5-(2-ethoxyethoxy)phenyl)pyridin-2-yl)-4H-1,2,4-triazole-3-carboxamide] registered an IC50 of no more than 100 nM.

Turning to `CCOCCOc1ccc(Cl)c(-c2ccnc(NC(=O)c3nnc(Cc4ccccc4F)[nH]3)c2)c1` [Example 384, 5-(2-fluorobenzyl)-N-(4-(2-chloro-5-(2-ethoxyethoxy)phenyl)pyridin-2-yl)-4H-1,2,4-triazole-3-carboxamide], the IC50 was no more than 100 nM.

Consider `CCOCCOc1ccc(Cl)c(-c2ccnc(NC(=O)c3nnc(CC4CCCC4)[nH]3)c2)c1` [Example 385, N-(4-(2-chloro-5-(2-ethoxyethoxy)phenyl)pyridin-2-yl)-5-(cyclopentylmethyl)-4H-1,2,4-triazole-3-carboxamide], for which the IC50 was no more than 100 nM.

Compound `CCOCCOc1ccc(Cl)c(-c2ccnc(NC(=O)c3nnc(CC4CCCCC4)[nH]3)c2)c1` [Example 386, N-(4-(2-chloro-5-(2-ethoxyethoxy)phenyl)pyridin-2-yl)-5-(cyclohexylmethyl)-4H-1,2,4-triazole-3-carboxamide] yielded an IC50 of no more than 100 nM.

For `CC(C)OCCOc1ccc(Cl)c(-c2ccnc(NC(=O)c3nnc(Cc4ccccc4)[nH]3)c2)c1` [Example 387, 5-benzyl-N-(4-(2-chloro-5-(2-isopropoxyethoxy)phenyl)pyridin-2-yl)-4H-1,2,4-triazole-3-carboxamide], the IC50 is no more than 100 nM.

In turn, `CC(C)OCCOc1ccc(Cl)c(-c2ccnc(NC(=O)c3nnc(Cc4ccccc4F)[nH]3)c2)c1` [Example 388, 5-(2-fluorobenzyl)-N-(4-(2-chloro-5-(2-isopropoxyethoxy)phenyl)pyridin-2-yl)-4H-1,2,4-triazole-3-carboxamide] registered an IC50 of no more than 100 nM.

As for `CC(C)OCCOc1ccc(Cl)c(-c2ccnc(NC(=O)c3nnc(CC4CCCC4)[nH]3)c2)c1` [Example 389, N-(4-(2-chloro-5-(2-isopropoxyethoxy)phenyl)pyridin-2-yl)-5-(cyclopentylmethyl)-4H-1,2,4-triazole-3-carboxamide], the IC50 was no more than 100 nM.

Compound `CC(C)OCCOc1ccc(Cl)c(-c2ccnc(NC(=O)c3nnc(CC4CCCCC4)[nH]3)c2)c1` [Example 390, N-(4-(2-chloro-5-(2-isopropoxyethoxy)phenyl)pyridin-2-yl)-5-(cyclohexylmethyl)-4H-1,2,4-triazole-3-carboxamide] returned an IC50 of no more than 100 nM.

On to `CC(C)(C)OCCOc1ccc(Cl)c(-c2ccnc(NC(=O)c3nnc(Cc4ccccc4)[nH]3)c2)c1` [Example 391, 5-benzyl-N-(4-(5-(2-(tert-butoxy)ethoxy)-2-chlorophenyl)pyridin-2-yl)-4H-1,2,4-triazole-3-carboxamide], for which the IC50 is no more than 100 nM.

As to `CC(C)(C)OCCOc1ccc(Cl)c(-c2ccnc(NC(=O)c3nnc(Cc4ccccc4F)[nH]3)c2)c1` [Example 392, 5-(2-fluorobenzyl)-N-(4-(5-(2-(tert-butoxy)ethoxy)-2-chlorophenyl)pyridin-2-yl)-4H-1,2,4-triazole-3-carboxamide], the IC50 was no more than 100 nM.

Compound `CC(C)(C)OCCOc1ccc(Cl)c(-c2ccnc(NC(=O)c3nnc(CC4CCCC4)[nH]3)c2)c1` [Example 393, N-(4-(5-(2-(tert-butoxy)ethoxy)-2-chlorophenyl)pyridin-2-yl)-5-(cyclopentylmethyl)-4H-1,2,4-triazole-3-carboxamide] registered an IC50 of no more than 100 nM.

`CC(C)(C)OCCOc1ccc(Cl)c(-c2ccnc(NC(=O)c3nnc(CC4CCCCC4)[nH]3)c2)c1` [Example 394, N-(4-(5-(2-(tert-butoxy)ethoxy)-2-chlorophenyl)pyridin-2-yl)-5-(cyclohexylmethyl)-4H-1,2,4-triazole-3-carboxamide]: the IC50 was no more than 100 nM.

In the case of `COCCCOc1ccc(Cl)c(-c2ccnc(NC(=O)c3nnc(Cc4ccccc4)[nH]3)c2)c1` [Example 395, 5-benzyl-N-(4-(2-chloro-5-(3-methoxypropoxy)phenyl)pyridin-2-yl)-4H-1,2,4-triazole-3-carboxamide], the IC50 is no more than 100 nM.

Regarding `COCCCOc1ccc(Cl)c(-c2ccnc(NC(=O)c3nnc(Cc4ccccc4F)[nH]3)c2)c1` [Example 396, 5-(2-fluorobenzyl)-N-(4-(2-chloro-5-(3-methoxypropoxy)phenyl)pyridin-2-yl)-4H-1,2,4-triazole-3-carboxamide], the IC50 is no more than 100 nM.
